{
  "source": "patent US20240398806A1",
  "about": "“Compositions For and Methods of Treating and/or Preventing Pain” (Duke University, priority 2021, published 2024)",
  "key": {"[1]": {"test": "Pharmacokinetics in mouse", "format": "in vivo"}, "[2]": {"test": "Pharmacokinetics in monkey (IV and PO)", "format": "in vivo", "settings": "for AUC: monkey; for MRT last: read-out: MRT0-last"}, "NTSR1 [3]": {"molecular_target": "T1, NTSR1 (Homo sapiens, UniProt P30989)", "T1 sequence (P30989 whole entry)": "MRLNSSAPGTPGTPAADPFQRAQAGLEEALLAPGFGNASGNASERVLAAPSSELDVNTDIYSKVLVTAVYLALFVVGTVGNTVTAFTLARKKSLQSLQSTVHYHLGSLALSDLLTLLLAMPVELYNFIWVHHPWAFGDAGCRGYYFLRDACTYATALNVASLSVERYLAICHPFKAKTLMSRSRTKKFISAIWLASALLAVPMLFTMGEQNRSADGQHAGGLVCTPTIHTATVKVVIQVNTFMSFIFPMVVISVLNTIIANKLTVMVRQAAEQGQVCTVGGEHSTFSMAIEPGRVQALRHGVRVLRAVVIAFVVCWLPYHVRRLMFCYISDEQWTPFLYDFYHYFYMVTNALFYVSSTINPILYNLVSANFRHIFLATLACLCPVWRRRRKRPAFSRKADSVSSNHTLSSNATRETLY", "test": "Cellular assay of β-arrestin-2 translocation in cells expressing NTSR1", "format": "cell-based", "set-up": "expressed in transfected cells; host or cells: HEK293T cell membranes", "method": "First, using cellular assays, whether IND candidates such as SBI-810 are similar or better than SBI-553 as β-arrestin biased agonist at NTSR1. is assessed. The chemical entities used in this work were synthesized and validated. However, routine validation of the profile of these compounds is performed routinely using both cellular and in vivo assays. For example, HEK293 cells that express either the NTSR1 or NTSR2 are used to assess the functional profile of the various chemical probes. In addition, a series of genetically engineered mouse lines are used to provide an in vivo validation of novel chemical entities for their abilities to module behaviors in these animals.\nFourth, cellular assays are used to establish that IND ready analogs like SBI-810 are still selective for the NTSR1 rather than NTSR2. The specificity of the lead compounds toward NTSR1. NTSR2. and β-arrestin-2 are tested in respective cellular assays. More specifically, cells expressing either NTSR1 or NTSR2 are used to assess the function of various compound. […] This translocation is not observed in cells expressing NTSR2.\nFourth, genetically engineered mice are used to assess the effects and mechanisms of novel ligands. The specificity of the lead compounds toward NTSR1, NTSR2, and β-arrestin-2 dependent signaling is examined. […]"}, "[4]": {"test": "Whole body plethysmography (respiratory depression)", "format": "in vivo, mice", "text": "Third, plethysmography is used to examine whether SBI-553 and IND ready analog SBI-810 can be administered to mice intraperitoneally, intravenously, or intrathecally without respiratory depression. Using plethysmography determine whether SBI-553 and IND ready analog SBI-810 can be administered to mice (e.g., C57BL6J) intraperitonially, intravenously, or intrathecally without respiratory depression. […] The “Buxco FinePointe Whole Body Plethysmography 4-Site System” was used to assess whether any IND analogs like the SBI-810 in the same system following intraperitoneal, intravenous, or intrathecal administration. Here. C57BL6J mice are assessed using UWBP, a technique that provides a, non-invasive, quantitative means to assess and analyze respiratory parameters. This will include tidal volume, minute volume, inspiratory duty cycle, inspiratory flow rate and the ratio of inspiration time to expiration time using a repeated measures approach to determine lung function on the same animal under multiple treatment conditions."}, "NTSR1 [5]": {"molecular_target": "T1, NTSR1", "test": "[3H]NTS saturation binding to NTSR1-containing HEK293T cell membranes in absence and presence of SBI-553", "set-up": "expressed in transfected cells; host or cells: HEK293T cell membranes", "text": "FIG. 4A-FIG. 4D show SBI-553 activates NTSR1 to stimulate β-arrestin-associated cellular responses.\nPreliminary studies provided significant data for this example. SBI-553 was derived from a medicinal chemistry campaign to improve the ML314 probe series and was selected for potency, pharmacokinetic profile, and selectivity for NTSR1 over the NTSR2 (Pinkerton A B, et al. (2019) J Med Chem. 62(17):8357-8363, which is incorporated by reference for its teachings of the making of SBI-553). […] Binding specificity to NTSR1 was further confirmed by comparing membranes containing an off-target receptor (i.e., b2-adrenergic receptor) (Slosky L M, et al. (2020) Cell. 181(6):1364-1379e14). […] These findings indicate that SBI-553 is a β-arrestin-biased ligand that stimulates β-arrestin-mediated processes at NTSR1 […] without activating Gq protein signaling (FIG. 5)."}, "[6]": {"test": "Intravenous cocaine self-administration", "format": "in vivo, mice", "settings": "2, 6 or 12 mg/kg i.p.; cocaine 0.1-1 mg/kg/infusion", "method": "Once stable performance was achieved, self-administration was assessed once daily in 60 min sessions. Animals received vehicle (saline, i.p.) or SBI-553 (2, 6, or 12 mg/kg, i.p.) immediately prior to placement into self-administration chambers with access to cocaine at doses of 0.1, 0.3, 0.5, or 1 mg/kg/infusion. FIG. 7B-FIG. 7C show cocaine-induced and methamphetamine-induced hyperlocomotion.\nThe effect of SBI-553 on cocaine self-administration was both cocaine-dose dependent and SBI-553-dose dependent. […] In the presence of β-arrestin2, SBI-553 reduced activity in mice. A 12 mg/kg (i.p.) dose of SBI-553 decreased both cocaine-and methamphetamine-induced hyperlocomotion in wild-type (WT) mice on a C57BL/6J background (FIG. 7B-FIG. 7C). […] Conversely, a significant reduction in locomotion was absent in global β-arrestin2 KO mice (Slosky L M, et al. (2020) Cell. 181(6):1364-1379e14)."}, "[7]": {"test": "Rotarod test of motor function", "settings": "i.t. injection"}, "[8]": {"test": "Plantar incision-induced post-operative pain (mechanical allodynia) in WT and Arrb2 KO mice", "format": "in vivo", "settings": "12 mg/kg IP"}, "Pharmacokinetics in rat": {"test": "Pharmacokinetics in rat", "format": "in vivo"}, "[9]": {"settings": "brain, 30 mg/kg, 30 mpk po (pa [sic]), 1 h, read-out: brain:plasma @ 1 h"}, "[10]": {"settings": "plasma, 30 mg/kg, 5 mpk iv and 30 mpk po"}},
  "note": "Read-outs that look alike come from different tables or passages of the source.",
  "data": [
    {"compound": "COc1ccccc1C1CCN(c2nc(C3(F)CC3)nc3ccc(N(C)CCO)cc23)CC1", "note": "[SBI-553]", "values": [
      {"measurement": "CIp", "setting": "[1]; 5 mpk iv (printed tv)", "value": 44.8, "unit": "mL/min/kg"},
      {"measurement": "Vd", "setting": "[1]; 5 mpk iv (printed tv)", "value": 6.16, "unit": "L/kg"},
      {"measurement": "Cmax", "setting": "[1]; 30 mpk po (pa [sic])", "value": 1460, "unit": "ng/mL"},
      {"measurement": "T2/2", "setting": "[1]; 30 mpk po (pa [sic])", "value": 5.28, "unit": "h"},
      {"measurement": "Kp at 1 h", "setting": "[1]; [9]", "value": 54},
      {"measurement": "bioavailability", "setting": "[1]; [10]", "value": 45, "unit": "%"},
      {"measurement": "AUC", "setting": "[1]; route not marked", "value": 4824, "unit": "ng·h/mL"},
      {"measurement": "Co", "setting": "[2]; Monkey, IV 5 mg/kg", "value": 4572, "unit": "ng/mL"},
      {"measurement": "T2/2", "setting": "[2]; Monkey, IV 5 mg/kg", "value": 4.78, "unit": "h"},
      {"measurement": "CI", "setting": "[2]; Monkey, PO 20 mg/kg", "value": 8, "unit": "mL/min/kg"},
      {"measurement": "Co", "setting": "[2]; Monkey, PO 20 mg/kg", "value": 67.6, "unit": "ng/mL"},
      {"measurement": "Levels in plasma", "setting": "[2]; following i.v. and p.o. dosing", "value": "good levels in plasma"},
      {"measurement": "AUC", "setting": "[2]; plasma, iv, 5 mg/kg, Monkey, IV 5 mg/kg, read-out: AUCo-inf", "value": 4340, "unit": "ng·h/mL"},
      {"measurement": "AUC", "setting": "[2]; plasma, iv, 5 mg/kg, Monkey, IV 5 mg/kg, read-out: AUCo-last", "value": 4280, "unit": "ng·h/mL"},
      {"measurement": "AUC", "setting": "[2]; plasma, po, 20 mg/kg, Monkey, PO 20 mg/kg, read-out: AUCo-inf", "value": 864, "unit": "ng·h/mL"},
      {"measurement": "AUC", "setting": "[2]; plasma, po, 20 mg/kg, Monkey, PO 20 mg/kg, read-out: AUCo-last", "value": 797, "unit": "ng·h/mL"},
      {"measurement": "clearance", "setting": "[2]; plasma, Monkey, IV 5 mg/kg", "value": 19.2, "unit": "mL/min/kg"},
      {"measurement": "MRT last", "setting": "[2]; plasma, Monkey, IV 5 mg/kg", "value": 2.3, "unit": "h"},
      {"measurement": "Vd", "setting": "[2]; plasma, Monkey, IV 5 mg/kg, read-out: Vdss", "value": 3.1, "unit": "L/kg"},
      {"measurement": "half-life", "setting": "[2]; plasma, Monkey, PO 20 mg/kg", "value": 8, "unit": "h"},
      {"measurement": "MRT last", "setting": "[2]; plasma, Monkey, PO 20 mg/kg", "value": 11.9, "unit": "h"},
      {"measurement": "Translocation of β-arrestin-2 to intracellular compartments", "setting": "NTSR1 [3]", "value": "demonstrate translocation of β-arrestin-2"},
      {"measurement": "Breathing frequency or tidal volume", "setting": "[4]; on its own", "value": "had no effect"},
      {"measurement": "Reduction in breathing frequency or tidal volume produced by morphine", "setting": "[4]; with morphine", "value": "did not exacerbate"},
      {"measurement": "Effect on total [3H]NTS binding", "setting": "NTSR1 [5]", "value": "increased"},
      {"measurement": "Increase of NTS affinity for NTSR1 (Kd)", "setting": "NTSR1 [5]; dose-dependent", "value": "up to 3.9 fold"},
      {"measurement": "Increase of number of available [3H]NTS binding sites (Bmax)", "setting": "NTSR1 [5]; dose-dependent", "value": "up to 3.3 fold"},
      {"measurement": "Cocaine self-administration", "setting": "[6]", "value": "maintenance intake reduction"},
      {"measurement": "Rotarod testing versus vehicle", "setting": "[7]", "value": "no significant difference"},
      {"measurement": "Duration of analgesic effect", "setting": "[8]", "value": "more than 4.5 hr"},
      {"measurement": "Time after injection at which analgesic effect was observed", "setting": "[8]", "value": 2, "unit": "h"},
      {"measurement": "Plantar incision-induced mechanical allodynia", "setting": "[8]; Arrb2 KO mice", "value": "not"},
      {"measurement": "Plantar incision-induced mechanical allodynia", "setting": "[8]; WT mice", "value": "significantly reduced"},
      {"measurement": "CIp", "setting": "Pharmacokinetics in rat; 5 mpk iv (printed tv)", "value": 81, "unit": "mL/min/kg"},
      {"measurement": "Vd", "setting": "Pharmacokinetics in rat; 5 mpk iv (printed tv)", "value": 7.02, "unit": "L/kg"},
      {"measurement": "Cmax", "setting": "Pharmacokinetics in rat; 30 mpk po (pa [sic])", "value": 3482, "unit": "ng/mL"},
      {"measurement": "T2/2", "setting": "Pharmacokinetics in rat; 30 mpk po (pa [sic])", "value": 2.23, "unit": "h"},
      {"measurement": "Kp at 1 h", "setting": "Pharmacokinetics in rat; [9]", "value": 0.98},
      {"measurement": "bioavailability", "setting": "Pharmacokinetics in rat; [10]", "value": 48, "unit": "%"},
      {"measurement": "AUC", "setting": "Pharmacokinetics in rat; route not marked", "value": 2693, "unit": "ng·h/mL"}
    ]}
  ]
}
